The results in this text go back to EP2128622A1, “Means and methods for diagnosing metastasising potentials of tumor cells” (DKFZ Deutsches Krebsforschungszentrum, priority 2008, dated 2009).

Data set [1] concerns HaCaT cells. The data set can be described thus: Migration assay (scratch assay, model for wound healing). It is filed as cell-based, human. The protocol: Using a human keratinocyte cell line (HaCaT) in a Scratch-Assay as a model for wound healing, different model-predicted points of interference were tested. First it was confirmed that HGF-induced migration predominantly depends on a transcriptional response.
Immortalized human keratinocytes (HaCaT cells) were cultured in monoculture with DMEM (10% FCS, 100 U/ml penicillin, 100 µg/ml streptomycin). Subsequently, the cell monolayer was damaged with a 'scratch' using a pipette tip and cells were treated with 5 µg/ml mitomycin c (Sigma-Aldrich) for three hours before stimulation. Cells were stimulated at indicated time points and periods with cytokines and/or inhibitors: 10 ng/ml HGF, (R&D Systems), 1 ng/ml EGF (R&D Systems), 150 nM Tyrphostin AG1473 (Biomol) (EGF-R inhibitor) or 1 µM GW 2974 (Sigma) (EGF-R inhibitor), […] Meloxicam (Biomol) (PTGS-2 inhibitor), 0.5 µM H-89 (Calbiochem) (PKA inhibitor) or 10 µM Myristoylated PKI (14-22) amide, cell-permeable PKA inhibitor (Biomol), 200 µM 8-(4-Chlorophenylthio)adenosine 3',5'-cyclic monophosphate sodium salt (Sigma) (PKA activator) and incubated for further 30 hours. Relative migratory activity was determined by measuring migration distance during culture using standard protocols.

Data set [2] concerns HaCaT cells. The data set can be described thus: MTT-viability assay. The data set is classed as cell-based, human. Particulars: under Actinomycin D treatment; data not shown. (Formazan colour is commonly taken as a measure of viable cells.)

Numbered stars: 1 amine (or outer) side, 2 acyl side, 3 side chain; on linkers, the order of the positions; unused ones are H or OH. Bridge positions count the residues as written; N and C are the ends. Square brackets hold non-standard residues; d marks the D form. Peptide text beside a SMILES is read from it. I, II: the chains in the order shown. Actinocin(9to1) = Cc1c2oc3c(C)ccc(C(=O)[*:1])c3nc-2c(C(=O)[*:2])c(N)c1=O; NMeV = CN[C@H](C(=O)O)C(C)C; Sar = CNCC(=O)O

For `Nc1ncnc2c1nc(Sc1ccc(Cl)cc1)n2[C@@H]1O[C@@H]2COP(=O)([O-])O[C@H]2[C@H]1O.[Na+]` [8-(4-Chlorophenylthio)adenosine 3',5'-cyclic monophosphate sodium salt], the “HGF-induced HaCaT migration” value in the data set on HaCaT cells [1] (Fig. 6C, 200 µM added at different time points with respect to HGF pulse stimulation (10 ng/ml for 1.5h)) is recorded as “strongly decreases”.

For the molecule `Cc1c2oc3c(C)ccc(C(=O)N[C@@H]4C(=O)N[C@H](C(C)C)C(=O)N5CCC[C@H]5C(=O)N(C)CC(=O)N(C)[C@@H](C(C)C)C(=O)O[C@@H]4C)c3nc-2c(C(=O)N[C@@H]2C(=O)N[C@H](C(C)C)C(=O)N3CCC[C@H]3C(=O)N(C)CC(=O)N(C)[C@@H](C(C)C)C(=O)O[C@@H]2C)c(N)c1=O` [Actimocyin D, Actinomycin D] (I: T[dV]P[Sar][NMeV] / II: T[dV]P[Sar][NMeV]; ester I:1-I:C, II:1-II:C; linker I:N-II:N via Actinocin(9to1)), the cell viability entry in the data set with HaCaT cells [2] is reported as “still viable”. Further, the “migratory response to HGF” value with HaCaT cells [1] (Fig. 2B, prolonged incubation (30 h) with 10 ng/ml recombinant human HGF plus Actinomycin D 5 µg/ml) is reported as “abolished any migratory response to HGF”.

For `CN(C)c1cc2c(Nc3ccc4c(cnn4Cc4ccccc4)c3)ncnc2cn1` [GW2974], the HGF-induced migration entry in the data set on HaCaT cells [1] (Fig. 3G, 1 µM GW 2974 simultaneous to 10 ng/ml HGF, 30 h) is reported as “abolish HGF-induced migration”.

Consider `O=S(=O)(NCCNC/C=C/c1ccc(Br)cc1)c1cccc2cnccc12` [H-89], for which the HGF-induced migration result in the data set with HaCaT cells [1] (Fig. 6C, 0.5 µM at the time of HGF stimulation) was “slightly increases migration”. Moreover, the “development of a migratory response” value in the data set on HaCaT cells [1] (Fig. 6C, 0.5 µM directly after HGF pulse stimulation (1.5 h)) is given as “does not alter development of a migratory response”. The further migration result in the data set on HaCaT cells [1] (Fig. 6C, PKA inhibition after 22 h, when cells already developed a full migratory response) was “delays further migration”.
